Assay results published in patent US20150225790A1, “METHODS FOR IDENTIFYING SUBJECTS WITH AN INCREASED LIKELIHOOD OF RESPONDING TO CCR1 ANTAGONIST” (BRISTOL-MYERS SQUIBB COMPANY, priority 2012, published 2015).

Key:
MERTK [1] = test: Phase 1 trial, ex vivo RANTES-stimulated whole blood qRT-PCR: MERTK; assay type: in vivo, human; details: healthy volunteers, single and multiple oral doses; ex vivo 25 nM RANTES, 2 hours, 37° C.
Method: (§1) FIGS. 2A-D show relative CLEC5A and MERTK expression levels in a Phase I clinical trial. Healthy volunteers were treated with single or multiple doses of a CCR1 antagonist through oral administration at various dose levels; blood samples from subjects were treated ex vivo with CCR1 ligand RANTES. RNA was isolated and analyzed by qRT-PCR. Expression levels are represented as (negative) change in median CT (cycle threshold) value between the target (CLEC5A or MERTK) and the endogenous control (GAPDH) as a function of time.
(§2) In this study (Example 2), healthy volunteers were treated with single or multiple doses of a CCR1 antagonist through oral administration at various dose levels. Pharmacodynamic effects of the compound were assessed using an ex vivo functional assay at various times post dosing. For the assay, whole blood was collected at indicated time points following dosing with the CCR1 antagonist and stimulated ex vivo for 2 hours at 37° C. with 25 nM recombinant human RANTES. After the incubation, RNA was isolated and CLEC5A and MERTK mRNA levels, relative to the GAPDH housekeeping gene, were measured by qRT-PCR in triplicate at each time-point for each subject. The median cycle time (CT) for each gene was evaluated and changes in the CT values (ΔCT) were calculated by subtracting the median GAPDH CT value from the corresponding median values for CLEC5A CT or MERTK CT. […]

CD86 = test: Whole genome mRNA profiling, whole blood + RANTES: CD86; assay type: cell-based, human; details: probe 210895_s_at; healthy volunteer whole blood, RANTES 100 nM +/- BMS-817399 1 uM
Method: (§3) Gene profiling experiments to identify genes downstream of CCR1 signaling (via CCR1 ligand stimulation) were performed. It was shown that these genes were blocked following treatment with a CCR1 antagonist. Whole blood from three healthy volunteers was treated with RANTES (100 nM, CCL5), in the presence and absence of the CCR1 antagonist (50 nM, 1 μM) for 4 and 24 hours. Following the incubation, mRNA was isolated for whole genome mRNA profiling.
(§4) Lyophilized human recombinant CCR1 ligand RANTES (Peprotech, Rocky Hill, N.J.) was reconstituted to 100 μM per the manufacturer's instructions. BMS-817399 was reconstituted to 10 mM in 100% DMSO (Sigma-Aldrich, St. Louis Mo.) and further diluted 1:50 in 10% DMSO. […] RNA quantity and quality were assessed on the ND-8000 spectrophotometer (Thermo Scientific, Wilmington, Del.) and RNA integrity was assessed on the AGILENT® 2100 Bioanalyzer using the RNA 6000 Nano Lab Chip kit (Agilent Technologies, Santa Clara, Calif.).
(§5) RNA samples with yields ≧1.5 μg and RIN (RNA integrity number) values of 6.5 and above were randomized in 96-well plates and normalized to a concentration of 250 ng/μL in preparation for microarray analysis. […] Data obtained from the microarray analysis were analyzed by statisticians internal to Bristol-Myers Squibb. […]

FPRL2 = test: Whole genome mRNA profiling, whole blood + RANTES: FPRL2; assay type: cell-based, human; details: probe 214560_at; healthy volunteer whole blood, RANTES 100 nM +/- BMS-817399 1 uM; 4 hours
Method: as §3, §4, §5

CSPG2 = test: Whole genome mRNA profiling, whole blood + RANTES: CSPG2; assay type: cell-based, human; details: probe 204620_s_at; healthy volunteer whole blood, RANTES 100 nM +/- BMS-817399 1 uM
Method: as §3, §4, §5

PHLDA2 = test: Whole genome mRNA profiling, whole blood + RANTES: PHLDA2; assay type: cell-based, human; details: probe 209803_s_at; healthy volunteer whole blood, RANTES 100 nM +/- BMS-817399 1 uM
Method: as §3, §4, §5

CLEC5A [2] = test: Whole genome mRNA profiling, whole blood + RANTES: CLEC5A; assay type: cell-based, human; details: probe 219890_at; healthy volunteer whole blood, RANTES 100 nM +/- BMS-817399 1 uM; 4 hours
Method: as §3, §4, §5

TLR8 = test: Whole genome mRNA profiling, whole blood + RANTES: TLR8; assay type: cell-based, human; details: probe 220832_at; healthy volunteer whole blood, RANTES 100 nM +/- BMS-817399 1 uM
Method: as §3, §4, §5

[3] = Phase 1 trial in healthy human subjects: safety; assay type: in vivo
Source text: Current standard of care for the treatment of RA includes disease-modifying anti-rheumatic drugs that decrease immune activation and subsequent inflammation. However, a large proportion of patients are non-responsive to these medications, thus resulting in progression of disease symptoms. […] Further, identification of predictive biomarkers may allow for patient stratification in future clinical trials. Identification of patients most likely to respond favorably to the CCR1 antagonist may provide justification for use of a CCR1 antagonist earlier in the course of treatment, potentially preventing extensive structural damage of the joints.

FCN1 = test: Whole genome mRNA profiling, whole blood + RANTES: FCN1; assay type: cell-based, human; details: probe 206237_at; healthy volunteer whole blood, RANTES 100 nM +/- BMS-817399 1 uM; 24 hours
Method: as §3, §4, §5

CLEC5A [4] = test: In vitro treatment of RA patient whole blood, qRT-PCR: CLEC5A; assay type: cell-based, human; details: 500 nM CCR1 antagonist, 3 hours
Method: (§6) FIGS. 3A-B show relative CLEC5A and MERTK expression levels in RA patient blood. Whole blood from RA patients was shipped overnight and treated with 500 nM CCR1 antagonist for 3 hours. RNA was isolated and analyzed by qRT-PCR. Expression levels are represented as mRNA levels relative to the untreated control samples as a function of treatment condition. Percent inhibition of gene expression by the investigational drug was calculated and is represented as “% change”. C-reactive protein (CRP) levels of subjects, as determined by Bioreclamation, are listed as well.
(§7) Whole blood, collected from RA patients, was stimulated with 500 nM of a CCR1 antagonist for 3 hours at 37° C. After the incubation, RNA was isolated and the gene expression levels of CLEC5A, MERTK, and the endogenous control HPRT1 were assessed by qRT-PCR for each subject. CLEC5A and MERTK mRNA levels (normalized to that of HPRT1) were calculated relative to the untreated control sample for each patient.
(§8) Whole blood, drawn in EDTA VACUTAINER® tubes from RA patients, was obtained from Bioreclamation for in vitro treatment with BMS-817399 and subsequent qRT-PCR analysis. […] Serum CRP and whole blood ESR levels of qualified subjects were also assessed by Bioreclamation. […] Data were analyzed in the SDS software for relative quantitation. […]

KYNU = test: Whole genome mRNA profiling, whole blood + RANTES: KYNU; assay type: cell-based, human; details: probe 217388_s_at; healthy volunteer whole blood, RANTES 100 nM +/- BMS-817399 1 uM
Method: as §3, §4, §5

SPP1 = test: Whole genome mRNA profiling, whole blood + RANTES: SPP1; assay type: cell-based, human; details: probe 209875_s_at; healthy volunteer whole blood, RANTES 100 nM +/- BMS-817399 1 uM; 24 hours
Method: as §3, §4, §5

MERTK [5] = test: In vitro treatment of RA patient whole blood, qRT-PCR: MERTK; assay type: cell-based, human; details: 500 nM CCR1 antagonist, 3 hours
Method: as §6, §7, §8

MERTK [6] = test: Whole genome mRNA profiling, whole blood + RANTES: MERTK; assay type: cell-based, human; details: probe 206028_s_at; healthy volunteer whole blood, RANTES 100 nM +/- BMS-817399 1 uM; 4 hours
Method: as §3, §4, §5

CLEC5A [7] = test: Phase 1 trial, ex vivo RANTES-stimulated whole blood qRT-PCR: CLEC5A; assay type: in vivo, human; details: healthy volunteers, single and multiple oral doses; ex vivo 25 nM RANTES, 2 hours, 37° C.
Method: as §1, §2

CC(C)[C@@H](NC(=O)NCC(C)(C)O)C(=O)N1CC[C@](O)(c2ccc(Cl)cc2)C(C)(C)C1 [BMS-817399]
inhibition of MERTK gene expression in whole blood (MERTK [1]): rapid and potent inhibition | CD86 expression, Fold Change (CD86): −2.559 | CD86 expression, Mean (CD86): −1.356 | FPRL2 expression, Fold Change (FPRL2): −3.571 | FPRL2 expression, Mean (FPRL2): −1.836 | CSPG2 (versican) expression, Fold Change (CSPG2): −4.39 | CSPG2 (versican) expression, Mean (CSPG2): −2.134 | PHLDA2 expression, Fold Change (PHLDA2): −2.252 | PHLDA2 expression, Mean (PHLDA2): −1.171 | CLEC5A expression, Fold Change (CLEC5A [2]): −5.123 | CLEC5A expression, Mean (CLEC5A [2]): −2.357 | TLR8 expression, Fold Change (TLR8): −2.232 | TLR8 expression, Mean (TLR8): −1.158 | safety profile [3]: acceptable safety profile | FCN1 (ficolin 1) expression, Fold Change (FCN1): −2.234 | FCN1 (ficolin 1) expression, Mean (FCN1): −1.16 | decrease of CLEC5A expression levels relative to the untreated control samples (CLEC5A [4]): more than 30% | KYNU (kynureninase) expression, Fold Change (KYNU): −2.32 | KYNU (kynureninase) expression, Mean (KYNU): −1.214 | SPP1 (osteopontin) expression, Fold Change (SPP1): −6.547 | SPP1 (osteopontin) expression, Mean (SPP1): −2.711 | decrease of MERTK expression levels relative to the untreated control samples (MERTK [5]): more than 30% | MERTK expression, Fold Change (MERTK [6]): −2.417 | MERTK expression, Mean (MERTK [6]): −1.274 | inhibition of CLEC5A gene expression in whole blood (CLEC5A [7]): rapid and potent inhibition
